We go through 69 compounds from patent US20050148631A1, “Amino heterocyclyl inhibitors of 11-beta-hydroxy steroid dehydrogenase type 1” (AGOURON PHARMACEUTICALS, INC., priority 2003, published 2005).

Like-named read-outs stand apart in the source and are kept apart here.

The target of this assay is 11β-hsd-1 enzyme (Homo sapiens, UniProt P28845). The experiment in a line: 11β-hsd-1 enzyme assay, percentage of inhibition (3H-cortisone to cortisol, radio-HPLC). Type of assay: biochemical. To be noted: for inhibition at 0.1 µM: read-out: % inh @ 0.1 uM.
Sequence of 11β-hsd-1 enzyme (P28845 whole entry, species assumed): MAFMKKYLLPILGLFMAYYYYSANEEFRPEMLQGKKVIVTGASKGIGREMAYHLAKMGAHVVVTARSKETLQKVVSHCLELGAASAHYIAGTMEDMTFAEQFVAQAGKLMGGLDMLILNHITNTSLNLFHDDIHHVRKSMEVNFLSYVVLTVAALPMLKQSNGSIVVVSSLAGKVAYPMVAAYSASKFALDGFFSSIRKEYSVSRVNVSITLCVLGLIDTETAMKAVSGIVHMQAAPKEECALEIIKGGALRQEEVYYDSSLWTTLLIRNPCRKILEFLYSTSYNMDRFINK

With `CC(=O)Nc1ccc(-c2ccc(S(=O)(=O)Nc3cccc(C)n3)cc2)cc1` [Example 149], the inhibition at 0.1 µM (0.1 uM) was determined as 20.4%.

With `Cc1nc(NS(=O)(=O)c2ccc(-c3ccc(C#N)cc3)cc2)ccc1C#N` [Example 101], the inhibition at 0.1 µM (0.1 uM) is 32%.

In the case of `CC(=O)c1cccc(-c2ccc(S(=O)(=O)Nc3cccc(C)n3)cc2)c1` [Example 148], the inhibition at 0.1 µM (0.1 uM) was found to be 57.2%.

For the compound `COc1ccc(C(C)C)cc1-c1ccc(S(=O)(=O)Nc2cccc(C)n2)cc1C` [Example 239], for the setting “compound at 0.1 uM”, the inhibition at 0.1 µM turned out to be 65%.

Turning to `Cc1cc(C)nc(NS(=O)(=O)c2ccc(C(F)(F)F)cc2)c1` [Example 77], the inhibition at 0.1 µM (0.1 uM) was determined as 35.4%.

Turning to `Cc1cccc(NS(=O)(=O)c2ccc(-c3cccc(COc4ccccc4)c3)cc2)n1` [Example 155], where the note is “0.1 uM”, the inhibition at 0.1 µM was found to be 83.3%.

Regarding `Cc1c(Cl)cccc1S(=O)(=O)Nc1cccc(NC(=O)C2CCCN2)n1` (stereo not drawn) [Example 296, Pyrrolidine-2-carboxylic acid [6-(3-chloro-2-methyl-benzenesulfonylamino)-pyridin-2-yl]-amide], the inhibition at 0.1 µM (compound at 0.1 uM) is 16%.

For the compound `COC(=O)c1cccc(NS(=O)(=O)c2ccc(-c3ccc(C#N)cc3)cc2)n1` [Example 7], the inhibition at 0.1 µM (0.1 uM) was found to be 7.7%.

Consider `Cc1cccc(NS(=O)(=O)c2ccc(-c3ccc4c(c3)OCO4)cc2)n1` [Example 138], for which the inhibition at 0.1 µM (0.1 uM) is 91.2%.

With `Cc1cccc(NS(=O)(=O)Cc2ccc(C(F)(F)F)cc2)n1` [Example 73], the inhibition at 0.1 µM (0.1 uM) stood at 17.3%.

As to `Cc1c(Cl)cccc1S(=O)(=O)Nc1cccc(CO)n1` [Example 116], the inhibition at 0.1 µM (0.1 uM) is 37.2%.

Turning to `Cc1cccc(NS(=O)(=O)c2ccc(-c3ccccc3C)c(C)c2)n1` [Example 218], the inhibition at 0.1 µM (compound at 0.1 uM) was found to be 56%.

Consider `COc1cccc(NS(=O)(=O)c2ccc(C(F)(F)F)cc2)n1` [Example 62], for which, for the setting “0.1 uM”, the inhibition at 0.1 µM is 1.3%.

For `Cc1cccc(NS(=O)(=O)c2ccc(-c3cccc(C(F)(F)F)c3)cc2)n1` [Example 130], the inhibition at 0.1 µM (0.1 uM) is 78.9%.

For the compound `Cc1cccc(NS(=O)(=O)c2ccc(F)cc2F)n1` [Example 55], the inhibition at 0.1 µM (0.1 uM) was 7.4%.

`Cc1c(Cl)cccc1S(=O)(=O)Nc1cccc(CC(=O)N2CCOCC2)n1` [Example 8, 3-Chloro-2-methyl-N-[6-(2-morpholin-4-yl-2-oxo-ethyl)-pyridin-2-yl]-benzenesulfonamide]: where the note is “0.1 uM”, the inhibition at 0.1 µM came to 5.52%.

Consider `Cc1cccc(NS(=O)(=O)c2cnn(-c3ccccc3)c2C)n1` [Example 99], for which the inhibition at 0.1 µM (0.1 uM) was found to be 15%.

As to `CN(C)Cc1cccc(NS(=O)(=O)c2ccc(-c3ccc(C#N)cc3)cc2)n1` [Example 79], the inhibition at 0.1 µM (0.1 uM) turned out to be 8.1%.

`N#Cc1ccc(-c2ccc(S(=O)(=O)Nc3ccccn3)cc2)cc1` [Example 82]: the inhibition at 0.1 µM (0.1 uM) was 53.4%.

Take `Cc1cccc(NS(=O)(=O)c2ccc(-c3ccc(OC(F)(F)F)cc3)cc2)n1` [Example 144]: where the note is “0.1 uM”, the inhibition at 0.1 µM is 86.8%.

Turning to `Cc1c(Cl)cccc1S(=O)(=O)Nc1cccc(CC(=O)NCc2ccc(C(F)(F)F)cc2)n1` [Example 13], the inhibition at 0.1 µM (0.1 uM) amounted to 9.1%.

For `Cc1cccc(NS(=O)(=O)c2ccc(-c3ccc(F)c(Cl)c3)cc2)n1` [Example 123], the inhibition at 0.1 µM (0.1 uM) is 89.9%.

With `Cc1cccc(NS(=O)(=O)c2ccc(/C=C/c3ccccc3)cc2)n1` [Example 151], the inhibition at 0.1 µM (0.1 uM) is 59.8%.

On to `C=Cc1ccc(-c2ccc(S(=O)(=O)Nc3cccc(C)n3)cc2)cc1` [Example 127], for which the inhibition at 0.1 µM (0.1 uM) was determined as 100%.

In the case of `Cc1cccc(NS(=O)(=O)c2ccccc2C(F)(F)F)n1` [Example 54], the inhibition at 0.1 µM (0.1 uM) turned out to be 1%.

On to `Cc1cccc(NS(=O)(=O)c2ccc(-c3ccccc3C(F)(F)F)cc2)n1` [Example 122], for which the inhibition at 0.1 µM (0.1 uM) worked out at 85.7%.

As to `Cc1c(Cl)cccc1S(=O)(=O)Nc1cccc(CC(=O)N2CCN(C)CC2)n1` [Example 11], the inhibition at 0.1 µM worked out at 8.05%.

With `Cc1cccc(NS(=O)(=O)c2ccc(-c3cc(F)cc(F)c3)cc2)n1` [Example 145], the inhibition at 0.1 µM (0.1 uM) is 80.6%.

As to `Cc1c(S(=O)(=O)Nc2cccc(CN(C)C)n2)sc2ccc(Cl)cc12` [Example 84], the inhibition at 0.1 µM (0.1 uM) turned out to be 26.4%.

As to `Cc1nnc2n1CCN(S(=O)(=O)Nc1ccc3ccccc3n1)CC2` [Example 312], the inhibition at 0.1 µM (compound at 0.1 uM) was determined as 6.9%.

Regarding `Cc1c(Cl)cccc1S(=O)(=O)Nc1cccc(CC(=O)N2CCCC(C)(C)C2)n1` [Example 28], the inhibition at 0.1 µM (0.1 uM) is 45.6%.

On to `Cc1cccc(NS(=O)(=O)c2ccc(-c3ccc(F)c(C)c3)cc2)n1` [Example 150], for which the inhibition at 0.1 µM (0.1 uM) was 79.3%.

`Cc1c(Cl)cccc1S(=O)(=O)Nc1cccc(CC(=O)O)n1` [Example 26, [6-(3-Chloro-2-methyl-benzenesulfonylamino)-pyridin-2-yl]-acetic acid]: where the note is “0.1 uM”, the inhibition at 0.1 µM stood at 25.2%.

As to `Cc1cccc(NS(=O)(=O)c2ccc(-c3cccc(Cl)c3Cl)c(C)c2)n1` [Example 237], the inhibition at 0.1 µM (compound at 0.1 uM) was 58%.

With `COc1ccc(-c2ccc(S(=O)(=O)Nc3cccc(C)n3)cc2C)cc1C` [Example 243], the inhibition at 0.1 µM (compound at 0.1 uM) stood at 70%.

With `CCc1ccc(-c2ccc(S(=O)(=O)Nc3cccc(C)n3)cc2C)cc1` [Example 235], the inhibition at 0.1 µM (compound at 0.1 uM) came to 87%.

As to `CCOc1ccccc1-c1ccc(S(=O)(=O)Nc2cccc(C)n2)c(C)c1` [Example 188], where the note is “0.1 uM”, the inhibition at 0.1 µM was determined as 53%.

In the case of `Cc1cc(N)nc(NS(=O)(=O)c2ccc(-c3ccc(C#N)cc3)cc2)c1` [Example 113, 4′-Cyano-biphenyl-4-sulfonic acid (6-amino-4-methyl-pyridin-2-yl)-amide], the inhibition at 0.1 µM (0.1 uM) worked out at 100%.

`Cc1c(Cl)cccc1S(=O)(=O)Nc1cccc(CC(=O)N2CCSCC2)n1` [Example 10]: the inhibition at 0.1 µM (0.1 uM) was 38.7%.

As to `Cc1cccc(NS(=O)(=O)c2ccc(-c3ccc(F)cc3C)c(C)c2)n1` [Example 242], the inhibition at 0.1 µM (compound at 0.1 uM) is 61%.

`Cc1cccc(NS(=O)(=O)N2CCC(C#N)(c3ccccc3)CC2)n1` [Example 305]: the inhibition at 0.1 µM (compound at 0.1 uM) came to 1.1%.

With `CCCCc1ccc(-c2ccc(S(=O)(=O)Nc3cccc(C)n3)cc2C)cc1` [Example 246], under “compound at 0.1 uM”, the inhibition at 0.1 µM was 65%.

For the compound `CCSc1ccc(-c2ccc(S(=O)(=O)Nc3cccc(C)n3)cc2)cc1` [Example 141], the inhibition at 0.1 µM (0.1 uM) was found to be 83.8%.

As to `Cc1cccc(NS(=O)(=O)c2ccc(-c3ccc(CO)cc3)cc2)n1` [Example 146], where the note is “0.1 uM”, the inhibition at 0.1 µM worked out at 46.5%.

Turning to `Cc1cccc(NS(=O)(=O)c2ccc(N3CCOCC3)nc2)n1` [Example 83], the inhibition at 0.1 µM (0.1 uM) was 11.1%.

Consider `Cc1cccc(NS(=O)(=O)c2c(Cl)nc3sccn23)n1` [Example 80], for which the inhibition at 0.1 µM (0.1 uM) was found to be 8%.

In the case of `Cc1ccc(-c2ccc(S(=O)(=O)Nc3cccc(C)n3)cc2)cc1` [Example 124], the inhibition at 0.1 µM (0.1 uM) came to 84%.

As to `Cc1cccc(NS(=O)(=O)c2ccc(C#N)cc2Cl)n1` [Example 53], where the note is “0.1 uM”, the inhibition at 0.1 µM was 10.1%.

With `Cc1cccc(-c2ccc(S(=O)(=O)Nc3cccc(C)n3)c(C)c2)c1` [Example 189], for the setting “0.1 uM”, the inhibition at 0.1 µM came to 88%.

Turning to `Cc1cccc(NS(=O)(=O)c2ccc(N3CCCCC3)nc2)n1` [Example 269, N-(6-methylpyridin-2-yl)-6-piperidin-1-ylpyridine-3-sulfonamide], the inhibition at 0.1 µM (compound at 0.1 uM) was determined as 2.4%.

For `Cc1c(Cl)cccc1S(=O)(=O)Nc1cccc(CC(=O)N2CCCCC2)n1` [Example 9], where the note is “0.1 uM”, the inhibition at 0.1 µM came to 54.8%.

Take `Cc1cc(C)nc(NS(=O)(=O)c2ccc(C(F)(F)F)cc2)c1` [Example 45]: for the setting “0.1 uM”, the “% inh @ 0.1 uM” value came out at 35%.

For the compound `COc1ccccc1-c1ccc(S(=O)(=O)Nc2cccc(C)n2)cc1` [Example 120], the inhibition at 0.1 µM (0.1 uM) was 71.7%.

As for `C=CCN(C)C(=O)Cc1cccc(NS(=O)(=O)c2cccc(Cl)c2C)n1` [Example 16], the inhibition at 0.1 µM (0.1 uM) came out at 10.9%.

As for `Cc1cccc(NS(=O)(=O)N2CC(Oc3ccc(F)cc3)C2)n1` [Example 313], under “compound at 0.1 uM”, the inhibition at 0.1 µM was determined as 27.2%.

Consider `Cc1cccc(NS(=O)(=O)c2ccc(-c3cc(Cl)ccc3Cl)cc2)n1` [Example 134], for which the inhibition at 0.1 µM (0.1 uM) is 83.5%.

In the case of `Cc1cccc(NS(=O)(=O)c2ccc(-c3cn[nH]c3)cc2)n1` [Example 250], for the setting “compound at 0.1 uM”, the inhibition at 0.1 µM amounted to 17%.

`COc1cc(-c2ccc(C#N)cc2)ccc1S(=O)(=O)Nc1cccc(C)n1` [Example 276, 4′-Cyano-3-methoxy-biphenyl-4-sulfonic acid (6-methyl-pyridin-2-yl)-amide]: the inhibition at 0.1 µM (compound at 0.1 uM) came to 60.1%.

On to `Cc1c(Cl)cccc1S(=O)(=O)Nc1cccc(CC(=O)N2CCN(Cc3ccccc3)CC2)n1` [Example 12], for which the inhibition at 0.1 µM came out at 21.5%.

On to `CC(=O)Nc1nc(C)c(S(=O)(=O)Nc2cc(C)cc(C)n2)s1` [Example 100], for which the inhibition at 0.1 µM (0.1 uM) was determined as 19.2%.

On to `Cc1c(Cl)cccc1S(=O)(=O)Nc1cccc(CC(=O)NC23CC4CC(CC(C4)C2)C3)n1` [Example 27, N-Adamantan-1-yl-2-[6-(3-chloro-2-methyl-benzenesulfonylamino)-pyridin-2-yl]-acetamide], for which, where the note is “0.1 uM”, the inhibition at 0.1 µM was determined as 1.9%.

As for `Cc1cccc(NS(=O)(=O)Cc2ccc(Cl)c(Cl)c2)n1` [Example 74], the inhibition at 0.1 µM (0.1 uM) amounted to 28.9%.

Regarding `Cc1cccc(NS(=O)(=O)c2ccc(-c3ccc(OCCN)cc3)cc2)n1` [Example 263, 4′-(2-Amino-ethoxy)-biphenyl-4-sulfonic acid (6-methyl-pyridin-2-yl)-amide], the inhibition at 0.1 µM (compound at 0.1 uM) was determined as 11.8%.

Turning to `Cc1cccc(NS(=O)(=O)c2ccc(-c3ccc(C(C)(C)C)cc3)cc2C)n1` [Example 175], the inhibition at 0.1 µM (0.1 uM) was determined as 59%.

Turning to `CCOC(=O)Cc1cccc(NS(=O)(=O)c2ccc(C(F)(F)F)cc2)n1` [Example 5], under “0.1 uM”, the inhibition at 0.1 µM worked out at 0.3%.

For `Cc1cccc(NS(=O)(=O)c2ccc(-c3ccc4ccccc4c3)cc2)n1` [Example 137], the inhibition at 0.1 µM (0.1 uM) was found to be 79%.

In the case of `Cc1cccc(NS(=O)(=O)c2ccc(-c3ncccn3)nc2)n1` [Example 261], the inhibition at 0.1 µM (compound at 0.1 uM) was found to be 2.6%.

Take `Cc1cccc(NS(=O)(=O)c2cccc(C(F)(F)F)c2)n1` [Example 50]: for the setting “0.1 uM”, the inhibition at 0.1 µM came out at 10.1%.

Consider `Cc1cccc(NS(=O)(=O)c2ccc(-c3ccc(F)cc3F)cc2)n1` [Example 142], for which the inhibition at 0.1 µM (0.1 uM) was found to be 84.5%.
